Test results: ChEMBL document CHEMBL3885881, “DrugMatrix”

Species: Rattus norvegicus
Experiment: DrugMatrix - Regimen: Daily Repeat
Format: toxicity, organism-based, Sprague-Dawley
Parameters: regimen Daily Repeat, gender Male, age 6-8 weeks
Conditions: in vivo, po, route oral GAVAGE, vehicle 100 % WATER; for BASOPHIL / EOSINOPHIL / ERYTHROCYTE COUNT / HEMATOCRIT / HEMOGLOBIN / LEUKOCYTE COUNT / LYMPHOCYTE / MEAN CORPUSCULAR HEMOGLOBIN / MEAN CORPUSCULAR HEMOGLOBIN CONCENTRATION / MEAN CORPUSCULAR VOLUME / MONOCYTE / NEUTROPHIL / PLATELET COUNT: tissue Blood; for ALANINE AMINOTRANSFERASE / ALBUMIN / ALKALINE PHOSPHATASE / ASPARTATE AMINOTRANSFERASE / BLOOD UREA NITROGEN / CHLORIDE / CHOLESTEROL / CREATINE PHOSPHOKINASE / CREATININE / GLUCOSE / PHOSPHORUS / POTASSIUM / SODIUM / TOTAL BILIRUBIN / TOTAL PROTEIN: tissue Plasma
[1] = 0 mg/kg, 72 h, dose level Control, time 3 day
[2] = 0 mg/kg, 120 h, dose level Control, time 5 day
[3] = 10 mg/kg, 72 h, dose level Low, time 3 day
[4] = 10 mg/kg, 120 h, dose level Low, time 5 day
[5] = 1500 mg/kg, 72 h, dose level High, time 3 day
[6] = 1500 mg/kg, 120 h, dose level High, time 5 day

`O=C(O)c1cc(=O)c2c(OCC(O)COc3cccc4oc(C(=O)O)cc(=O)c34)cccc2o1` [CROMOLYN] was tested, and the BASOPHIL [1] was 0%, the EOSINOPHIL [1] was 0.33% and the “ERYTHROCYTE COUNT” value [1] was 5.88 x10E6/uL. For the same molecule, the HEMATOCRIT [1] was 36.47%, the HEMOGLOBIN [1] was 14.2 G/DL and the “LEUKOCYTE COUNT” value [1] was 9.28 x10E3/uL. The LYMPHOCYTE [1] was 82.33%, the “MEAN CORPUSCULAR HEMOGLOBIN” value [1] was 24.2 pg and the “MEAN CORPUSCULAR HEMOGLOBIN CONCENTRATION” value [1] was 38.97 G/DL. For the same molecule, the “MEAN CORPUSCULAR VOLUME” value [1] was 62.12 fL, the MONOCYTE [1] was 2.33% and the NEUTROPHIL [1] was 15%. The “PLATELET COUNT” value [1] was 1114 x10E3/uL, the “ALANINE AMINOTRANSFERASE” value [1] was 41.17 u/L and the ALBUMIN [1] was 3.95 G/DL. For the same molecule, the “ALKALINE PHOSPHATASE” value [1] was 382.5 u/L, the “ASPARTATE AMINOTRANSFERASE” value [1] was 67.33 u/L and the “BLOOD UREA NITROGEN” value [1] was 15.5 mg/dL. The CHLORIDE [1] was 106.33 MEQ/L, the CHOLESTEROL [1] was 77.67 mg/dL and the “CREATINE PHOSPHOKINASE” value [1] was 123.33 u/L. The CREATININE [1] was 0.62 mg/dL, the GLUCOSE [1] was 185.67 mg/dL and the PHOSPHORUS [1] was 10.2 mg/dL. For the same molecule, the POTASSIUM [1] was 6.72 MEQ/L, the SODIUM [1] was 149.67 MEQ/L and the “TOTAL BILIRUBIN” value [1] was 0.97 mg/dL. For the same molecule, the “TOTAL PROTEIN” value [1] was 6.58 G/DL, the BASOPHIL [2] was 0% and the EOSINOPHIL [2] was 0%. The “ERYTHROCYTE COUNT” value [2] was 5.99 x10E6/uL, the HEMATOCRIT [2] was 36.88% and the HEMOGLOBIN [2] was 14.77 G/DL. For the same molecule, the “LEUKOCYTE COUNT” value [2] was 11.35 x10E3/uL, the LYMPHOCYTE [2] was 85.5% and the “MEAN CORPUSCULAR HEMOGLOBIN” value [2] was 24.7 pg. The “MEAN CORPUSCULAR HEMOGLOBIN CONCENTRATION” value [2] was 40.07 G/DL, the “MEAN CORPUSCULAR VOLUME” value [2] was 61.58 fL and the MONOCYTE [2] was 1.83%. The NEUTROPHIL [2] was 12.67%, the “PLATELET COUNT” value [2] was 979.67 x10E3/uL and the “ALANINE AMINOTRANSFERASE” value [2] was 36.5 u/L. For the same molecule, the ALBUMIN [2] was 3.63 G/DL, the “ALKALINE PHOSPHATASE” value [2] was 303.5 u/L and the “ASPARTATE AMINOTRANSFERASE” value [2] was 61 u/L. The “BLOOD UREA NITROGEN” value [2] was 16.5 mg/dL, the CHLORIDE [2] was 106.17 MEQ/L and the CHOLESTEROL [2] was 60.5 mg/dL. For the same molecule, the “CREATINE PHOSPHOKINASE” value [2] was 154.83 u/L, the CREATININE [2] was 0.6 mg/dL and the GLUCOSE [2] was 201 mg/dL. It also gave a PHOSPHORUS [2] of 10.1 mg/dL, a POTASSIUM [2] of 6.85 MEQ/L and an SODIUM [2] of 148.17 MEQ/L. For the same molecule, the “TOTAL BILIRUBIN” value [2] was 0.58 mg/dL, the “TOTAL PROTEIN” value [2] was 5.9 G/DL and the BASOPHIL [3] was 0%. The EOSINOPHIL [3] was 0%, the “ERYTHROCYTE COUNT” value [3] was 5.62 x10E6/uL and the HEMATOCRIT [3] was 34.93%. For the same molecule, the HEMOGLOBIN [3] was 13.6 G/DL, the “LEUKOCYTE COUNT” value [3] was 10.7 x10E3/uL and the LYMPHOCYTE [3] was 79%. For the same molecule, the “MEAN CORPUSCULAR HEMOGLOBIN” value [3] was 24.23 pg, the “MEAN CORPUSCULAR HEMOGLOBIN CONCENTRATION” value [3] was 38.93 G/DL and the “MEAN CORPUSCULAR VOLUME” value [3] was 62.2 fL. The MONOCYTE [3] was 2.33%, the NEUTROPHIL [3] was 18.67% and the “PLATELET COUNT” value [3] was 1007 x10E3/uL. For the same molecule, the “ALANINE AMINOTRANSFERASE” value [3] was 38.67 u/L, the ALBUMIN [3] was 3.87 G/DL and the “ALKALINE PHOSPHATASE” value [3] was 381.33 u/L. For the same molecule, the “ASPARTATE AMINOTRANSFERASE” value [3] was 60.67 u/L, the “BLOOD UREA NITROGEN” value [3] was 13 mg/dL and the CHLORIDE [3] was 107.33 MEQ/L. For the same molecule, the CHOLESTEROL [3] was 71.67 mg/dL, the “CREATINE PHOSPHOKINASE” value [3] was 119.67 u/L and the CREATININE [3] was 0.6 mg/dL. The GLUCOSE [3] was 182 mg/dL, the PHOSPHORUS [3] was 10.4 mg/dL and the POTASSIUM [3] was 6.6 MEQ/L. For the same molecule, the SODIUM [3] was 150.33 MEQ/L, the “TOTAL BILIRUBIN” value [3] was 0.8 mg/dL and the “TOTAL PROTEIN” value [3] was 6.33 G/DL. For the same molecule, the BASOPHIL [4] was 0%, the EOSINOPHIL [4] was 0.33% and the “ERYTHROCYTE COUNT” value [4] was 5.82 x10E6/uL. The HEMATOCRIT [4] was 35.37%, the HEMOGLOBIN [4] was 14.43 G/DL and the “LEUKOCYTE COUNT” value [4] was 10.43 x10E3/uL. For the same molecule, the LYMPHOCYTE [4] was 85%, the “MEAN CORPUSCULAR HEMOGLOBIN” value [4] was 24.83 pg and the “MEAN CORPUSCULAR HEMOGLOBIN CONCENTRATION” value [4] was 40.83 G/DL. For the same molecule, the “MEAN CORPUSCULAR VOLUME” value [4] was 60.73 fL, the MONOCYTE [4] was 2.33% and the NEUTROPHIL [4] was 12.33%. The “PLATELET COUNT” value [4] was 932 x10E3/uL, the “ALANINE AMINOTRANSFERASE” value [4] was 38 u/L and the ALBUMIN [4] was 3.73 G/DL. For the same molecule, the “ALKALINE PHOSPHATASE” value [4] was 274 u/L, the “ASPARTATE AMINOTRANSFERASE” value [4] was 62.33 u/L and the “BLOOD UREA NITROGEN” value [4] was 13.33 mg/dL. For the same molecule, the CHLORIDE [4] was 109 MEQ/L, the CHOLESTEROL [4] was 60.33 mg/dL and the “CREATINE PHOSPHOKINASE” value [4] was 101.67 u/L. It also gave a CREATININE [4] of 0.73 mg/dL, a GLUCOSE [4] of 167.33 mg/dL and a PHOSPHORUS [4] of 9.73 mg/dL. The POTASSIUM [4] was 6.7 MEQ/L, the SODIUM [4] was 151.33 MEQ/L and the “TOTAL BILIRUBIN” value [4] was 0.67 mg/dL. For the same molecule, the “TOTAL PROTEIN” value [4] was 5.87 G/DL, the BASOPHIL [5] was 0% and the EOSINOPHIL [5] was 0.33%. For the same molecule, the “ERYTHROCYTE COUNT” value [5] was 5.31 x10E6/uL, the HEMATOCRIT [5] was 33.07% and the HEMOGLOBIN [5] was 13.3 G/DL. The “LEUKOCYTE COUNT” value [5] was 10.3 x10E3/uL, the LYMPHOCYTE [5] was 79.67% and the “MEAN CORPUSCULAR HEMOGLOBIN” value [5] was 25.1 pg. The “MEAN CORPUSCULAR HEMOGLOBIN CONCENTRATION” value [5] was 40.3 G/DL, the “MEAN CORPUSCULAR VOLUME” value [5] was 62.23 fL and the MONOCYTE [5] was 1%. The NEUTROPHIL [5] was 18.67%, the “PLATELET COUNT” value [5] was 969.67 x10E3/uL and the “ALANINE AMINOTRANSFERASE” value [5] was 36 u/L. The ALBUMIN [5] was 3.9 G/DL, the “ALKALINE PHOSPHATASE” value [5] was 383.5 u/L and the “ASPARTATE AMINOTRANSFERASE” value [5] was 60 u/L. The “BLOOD UREA NITROGEN” value [5] was 13 mg/dL, the CHLORIDE [5] was 106 MEQ/L and the CHOLESTEROL [5] was 72 mg/dL. For the same molecule, the “CREATINE PHOSPHOKINASE” value [5] was 122 u/L, the CREATININE [5] was 0.5 mg/dL and the GLUCOSE [5] was 179 mg/dL. The PHOSPHORUS [5] was 9.8 mg/dL, the POTASSIUM [5] was 6.7 MEQ/L and the SODIUM [5] was 150 MEQ/L. The “TOTAL BILIRUBIN” value [5] was 0.5 mg/dL, the “TOTAL PROTEIN” value [5] was 6.25 G/DL and the BASOPHIL [6] was 0%. The EOSINOPHIL [6] was 0%, the “ERYTHROCYTE COUNT” value [6] was 6.38 x10E6/uL and the HEMATOCRIT [6] was 37.77%. The HEMOGLOBIN [6] was 14.93 G/DL, the “LEUKOCYTE COUNT” value [6] was 13.03 x10E3/uL and the LYMPHOCYTE [6] was 83.33%. For the same molecule, the “MEAN CORPUSCULAR HEMOGLOBIN” value [6] was 23.43 pg, the “MEAN CORPUSCULAR HEMOGLOBIN CONCENTRATION” value [6] was 39.57 G/DL and the “MEAN CORPUSCULAR VOLUME” value [6] was 59.27 fL. The MONOCYTE [6] was 0.67%, the NEUTROPHIL [6] was 16% and the “PLATELET COUNT” value [6] was 1070.67 x10E3/uL. The “ALANINE AMINOTRANSFERASE” value [6] was 36.33 u/L, the ALBUMIN [6] was 3.77 G/DL and the “ALKALINE PHOSPHATASE” value [6] was 352 u/L. The “ASPARTATE AMINOTRANSFERASE” value [6] was 63 u/L, the “BLOOD UREA NITROGEN” value [6] was 15.33 mg/dL and the CHLORIDE [6] was 106 MEQ/L. For the same molecule, the CHOLESTEROL [6] was 50.67 mg/dL, the “CREATINE PHOSPHOKINASE” value [6] was 125.33 u/L and the CREATININE [6] was 0.63 mg/dL. For the same molecule, the GLUCOSE [6] was 177.67 mg/dL, the PHOSPHORUS [6] was 10.5 mg/dL and the POTASSIUM [6] was 7.1 MEQ/L. The SODIUM [6] was 150 MEQ/L, the “TOTAL BILIRUBIN” value [6] was 0.57 mg/dL and the “TOTAL PROTEIN” value [6] was 6.13 G/DL.
